Columns and labels:
[1] = tested on: thoracic aorta segments; assay: Inhibition of phenylephrine-induced contraction on isolated aorta rings; design: species or system male Wistar rats; conditions: compounds 10^−4 M in organ bath, phenylephrine 10^−6 M, n = 5
Procedure: (§1) Cervical disruption was used to eliminate male Wistar rats weighing 200 g and 300 g. The thoracic aorta segments (3 mm to 5 mm) were slightly pressed and […]. The tissues were placed in an organ bath filled with 10 mL of Krebs-Henseleit solution and kept at 37 °C. Then 95% oxygen and 5% carbon dioxide were passed through the above-mentioned solution. To record organ responses to phenylephrine, (10^−6 M) (Sigma, St. Louis, MO, USA) simulated contractions; isometric transducers and Gemini recorders (Ugo Basile, Varese, Italy) were assembled. Aortic rings were recon traced with phenylephrine (10^−6 M) and subjected to acetylcholine (10^−6 M) for recording endothelium-dependent relaxations (EDR). All synthesized compounds along with the standard (valsartan) were mixed in DMSO; whereas synthesized derivatives of concentration 10^−4 M were added in an organ bath. In conscious rats, systolic blood pressure was recorded by applying the tail-cuff method. Wistar rats of 200 g to 250 g weight were selected and divided into groups of five individuals. The chemicals were injected intraperitoneally at a dosage of 80 mg/kg body weight. The tail-cuff and a piezoelectric pulse sensor were coupled to a blood pressure analyzer and were positioned at the base of the tail (May 9610, Ankara, Turkey).
(§2) All results were presented as the mean of SEM. (n = 5) and test compounds were employed for statistical significance determination.

[2] = tested on: Bacillus pumilus; assay: Antibacterial agar-well diffusion; assay type: cell-based; conditions: sample 100 mg/5 mL in DMSO; ceftriaxone sodium 20 mg/10 mL; 37 °C, 24 h; 6 mm wells
Procedure: (§3) After sterilizing the Mueller Hinton agar medium on plates in an autoclave and allowing it to cool to roughly 45 °C, a 100 µL standard inoculum was aseptically mixed, chilled till 37 °C, and 6 mm wells were formed in the inoculated plates. The volume of 100 μL (100 mg/5 mL in DMSO), ceftriaxone sodium (20 mg/10 mL in DMSO) as a positive control, and pure DMSO as a negative control; 30 μL of the sample solution was incorporated into these wells. These primed plates were incubated at 37 °C for 24 h prior to record inhibitory zones in millimeters.

[3] = tested on: Staphylococcus aureus; assay: Antibacterial agar-well diffusion; assay type: cell-based; conditions: sample 100 mg/5 mL in DMSO; ceftriaxone sodium 20 mg/10 mL; 37 °C, 24 h; 6 mm wells
Procedure: as §3

[4] = tested on: Escherichia coli; assay: Antibacterial agar-well diffusion; assay type: cell-based; conditions: sample 100 mg/5 mL in DMSO; ceftriaxone sodium 20 mg/10 mL; 37 °C, 24 h; 6 mm wells
Procedure: as §3

[5] = tested on: Pseudomonas aeruginosa; assay: Antibacterial agar-well diffusion; assay type: cell-based; conditions: sample 100 mg/5 mL in DMSO; ceftriaxone sodium 20 mg/10 mL; 37 °C, 24 h; 6 mm wells
Procedure: as §3

[6] = tested on: conscious rats; assay: Antihypertensive effect, systolic blood pressure by tail-cuff method in conscious rats; assay type: in vivo, Wistar rats; conditions: 80 mg/kg intraperitoneally, n = 5, Control 108.28 ± 6.87, DMSO 81.10 ± 3.21
Procedure: as §1, §2

[7] = DPPH free radical scavenging assay; conditions: 1.0 mL sample 0.5 mg/mL + 2 mL DPPH 0.2 mg/mL, 30 min, 517 nm
Procedure: The DPPH assay was carried out to estimate the antioxidant potential among all the compounds [29]. Then, 2 mL (0.2 mg/mL in methyl alcohol) of DPPH was mixed with 1.0 mL (0.5 mg/mL in methyl alcohol) of the sample solution in a test tube. All the reaction tubes were covered with aluminum foil and kept aside for 30 min to complete the reaction. The activity was carried out in a dark room. […] A UV-visible spectrophotometer was employed to observe a reduction in the concentration of free radicals at 517 nm. The absorbance of the control (1.0 mL methanol + 2 mL DPPH solution) was also measured. All samples were evaluated in a triplicate manner, and the mean results were recorded. The standard antioxidant (ascorbic acid) was evaluated and set as a reference/standard. The percentage of inhibition (%) was calculated using the following formula in terms of scavenging activity(S):S (%) = [(Ab − Aa)/Ab] × 100(1) where Ab = Absorbance of control; and Aa = Absorbance of the test sample

[8] = biological target: urease (Canavalia ensiformis, UniProt P07374); assay: biochemical; assay type: biochemical; conditions: for IC50: urease, pH 7.0, 37 °C, read-out: IC50 ± SEM
Procedure: The activity performed was an improved procedure of the Berthelot assay. […] For 5 min, the mixture was incubated at 37 °C. Each well in a 96-well plate received 40 µL of urea stock solution (20 mM); incubated for 10 min at 37 °C. Afterwards, 115 µL phenol hypochlorite (45 µL phenol + 70 µL alkali) per well was added. Furthermore, all the contents were incubated for 10 min at 37 °C. Absorbance at 625 nm was measured. Using the provided formula, the % of enzyme-inhibition and IC-50 values were computed Inhibition (%age) = [Control − test/100(control)] where Control = [Total enzyme activity minus inhibitor]. The test is the test compounds’ activity

Chain of urease (P07374 whole entry, looked up): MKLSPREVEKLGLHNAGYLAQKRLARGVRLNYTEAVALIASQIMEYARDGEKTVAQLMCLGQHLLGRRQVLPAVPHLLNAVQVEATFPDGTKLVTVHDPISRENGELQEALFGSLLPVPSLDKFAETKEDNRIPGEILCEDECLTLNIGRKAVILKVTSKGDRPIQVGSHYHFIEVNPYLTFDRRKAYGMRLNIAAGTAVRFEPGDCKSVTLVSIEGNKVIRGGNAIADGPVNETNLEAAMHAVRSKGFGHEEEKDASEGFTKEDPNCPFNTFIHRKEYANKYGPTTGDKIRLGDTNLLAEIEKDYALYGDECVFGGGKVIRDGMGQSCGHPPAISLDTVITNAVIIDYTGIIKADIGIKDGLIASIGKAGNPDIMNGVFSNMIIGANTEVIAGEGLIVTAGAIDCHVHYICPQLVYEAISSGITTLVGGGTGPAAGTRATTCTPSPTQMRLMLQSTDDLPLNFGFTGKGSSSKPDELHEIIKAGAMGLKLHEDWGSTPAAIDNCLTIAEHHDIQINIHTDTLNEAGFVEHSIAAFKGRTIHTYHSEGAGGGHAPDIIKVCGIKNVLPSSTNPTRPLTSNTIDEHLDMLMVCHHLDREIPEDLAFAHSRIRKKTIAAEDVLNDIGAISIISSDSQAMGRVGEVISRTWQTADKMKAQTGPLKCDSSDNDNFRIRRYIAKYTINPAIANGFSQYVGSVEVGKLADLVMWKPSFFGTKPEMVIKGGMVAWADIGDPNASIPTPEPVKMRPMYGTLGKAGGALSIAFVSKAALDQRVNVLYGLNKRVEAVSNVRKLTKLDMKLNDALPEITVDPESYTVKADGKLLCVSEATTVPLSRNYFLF

SMILES | %ge inh. of Phenylephrine Cont. (±SEM) [1] [%] | Zone of Inhibition Gram +ve Bacteria B.pumilus Mean ± SEM [2] [millimeters] | Zone of Inhibition Gram +ve Bacteria S. aureus Mean ± SEM [3] [millimeters] | Zone of Inhibition Gram -Ve Bacteria E. coli Mean ± SEM [4] [millimeters] | Zone of Inhibition Gram -Ve Bacteria P. aeruginosa Mean ± SEM [5] [millimeters] | Mean of Systolic Blood Pressure ± SEM [6] | %Age Inhibition ± SEM [7] [%] | IC50 [8] [µM] | folds more urease inhibition than standard Thiourea ([8]; relative to Thiourea IC50) [folds]
CCCCC(=O)N(Cc1ccc(-c2ccccc2-c2nn[nH]n2)cc1)C(C(=O)Oc1ccc2ccccc2c1)C(C)C (centres unmarked) [AV10, naphthalen-2-yl 2-(N-((2′-(2H-tetrazol-5-yl)-[1,1′-biphenyl]-4 yl)methyl)pentanamido)-3methyl butanoate] | 69.8 ± 6.7 | 10.30 ± 0.21 | 12.13 ± 0.37 | 10.40 ± 0.56 | 12.63 ± 0.63 | 75.82 ± 4.12 | 94.4 ± 0.52 | 2.05 ± 1.05 | –
CCCCC(=O)N(Cc1ccc(-c2ccccc2-c2nn[nH]n2)cc1)C(C(=O)Oc1ccc(Cl)cc1Cl)C(C)C (centres unmarked) [AV5, 2,4-dichlorophenyl 2-(N-((2′-(2H-tetrazol-5yl)-[1,1′-biphenyl]-4 yl)methyl)pentanamido)-3methyl butanoate] | 66.2 ± 4.2 | 11.23 ± 0.61 | 13.50 ± 0.50 | 11.36 ± 0.63 | 09.36 ± 0.85 | 81.92 ± 5.21 | 73.1 ± 0.49 | 1.29 ± 0.12 | 3

— publication PMC9959676 (Molecules, 2023)
